Results on eight molecules are retold here after patent US10889611B2, “Sialyltransferase inhibitors and uses thereof” (Academia Sinica, priority 2015, dated 2021).

Data set [1] addresses T1, α2,6(N)-sialyltransferases ST6GALI (Homo sapiens, UniProt P15907).
T1 construct: purchased RnDSystems.com (R&D Systems)
T1 sequence (P15907 1-406): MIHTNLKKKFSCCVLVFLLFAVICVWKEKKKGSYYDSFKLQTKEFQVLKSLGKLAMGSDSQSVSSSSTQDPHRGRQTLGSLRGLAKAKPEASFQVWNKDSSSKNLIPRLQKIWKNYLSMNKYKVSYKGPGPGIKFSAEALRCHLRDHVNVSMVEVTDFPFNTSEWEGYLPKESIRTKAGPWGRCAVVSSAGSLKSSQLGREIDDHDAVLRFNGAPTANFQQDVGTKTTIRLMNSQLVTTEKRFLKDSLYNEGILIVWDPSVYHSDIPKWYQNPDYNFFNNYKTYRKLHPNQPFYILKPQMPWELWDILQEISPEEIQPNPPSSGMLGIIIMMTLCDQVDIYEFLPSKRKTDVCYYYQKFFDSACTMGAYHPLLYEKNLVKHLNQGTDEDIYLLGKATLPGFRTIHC
Nature of the data set: Sialyltransferase inhibition assay, ST6GALI (reverse-phase HPLC). The data set is classed as biochemical. Conditions: for IC50: IC50 (μM) ST6GALI, α2,6-N-link. The protocol:
(§1) The enzymes analyzed in the present study included rat ST3Gal(I), rat ST3Gal(III), and human ST6Gal(I). Rat ST3Gal(I) and rat ST3Gal(Ill), were purchased from Calbiochem®, while human ST6Gal(I) was purchased from RnDSystems.com.
(§2) Sialyltransferase inhibition assay (α2,6-N-ST) was performed as follows: Sialyltransferase activity was determined by measuring the level of the end product of sialylated saccharides with reverse-phase HPLC. The assay mixtures contained the following components: 200 mM MES buffer; 100 mM NaCl; 0.5 mM EDTA; 0.01% Triton X-100; 1.4 mU ST6GALI; 25 μM Galβ1-4GlcNAc; 1 mM CMP-Neu5Ac and different concentration of Sialyltransferase inhibitors to a total volume of 50 μl. The assay mixture was incubated at 37° C. for 15 mins and then quenched by heating up to 101° C. for 10 mins. The sialylated product is resolved with reversed-phase HPLC. Kinetic data were obtained by fitting the initial rate data to the nonlinear regression equation.
(§3) Effects of the present compounds on the activity of sialyltransferase, including α2,3(N)-sialyltransferase ST3GALIII, α2,6(N)-sialyltransferases ST6GALI, and α2,3(O)-sialyltransferase ST3GALI, were determined in accordance with procedures described in the “Materials and Methods” section, and results are summarized in Table 1.

The target in data set [2] is T2, α2,3(O)-sialyltransferase ST3GALI (Rattus norvegicus, UniProt Q6H8N0).
T2 construct: purchased Calbiochem
T2 sequence (Q6H8N0 1-340): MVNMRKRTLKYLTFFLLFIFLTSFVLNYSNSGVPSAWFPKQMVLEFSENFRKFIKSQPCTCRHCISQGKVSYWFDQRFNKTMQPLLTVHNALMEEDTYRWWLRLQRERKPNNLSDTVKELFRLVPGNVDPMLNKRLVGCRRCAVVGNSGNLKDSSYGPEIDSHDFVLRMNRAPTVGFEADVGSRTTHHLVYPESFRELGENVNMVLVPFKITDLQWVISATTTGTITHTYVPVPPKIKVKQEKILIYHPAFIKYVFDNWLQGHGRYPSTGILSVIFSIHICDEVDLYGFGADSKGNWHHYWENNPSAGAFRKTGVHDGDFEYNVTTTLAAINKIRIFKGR
Nature of the data set: Sialyltransferase inhibition assay, ST3GALI (reverse-phase HPLC). The data set is classed as biochemical. The following applies: measured at 500 μM; read-out: ST3GALI inhibition percentage. The protocol:
as §1
as §2, with “mU ST3GALI; 2.5 mM T-antigen;” for “mU ST6GALI; 25 μM Galβ1-4GlcNAc;”, “to 101′C” for “to 101° C.”, “product was” for “product is”, “resolved by” for “resolved with”
as §3

Each structure is given as a SMILES string.

For `COc1ccc2c(CC(=O)N[C@@H](CC(=O)O)C(=O)O[C@@H]3CC[C@@]4(C)[C@H](CC[C@@H]5[C@@H]4CC[C@]4(C)C([C@H](C)CCC(=O)OCCN=[N+]=[N-])CC[C@@H]54)C3)cc(=O)oc2c1` (stereo partly drawn) [Compound 11, (3S)-4-(((3R,5R,8R,9S,10 S,13R,14S)-17-((R)-5-(2-azidoethoxy)-5-oxopentan-2-yl)-10,13-dimethylhexadecahydro-1H-cyclopenta[a]phenanthren-3-yl)oxy)-3-(2-(7-methoxy-2-oxo-2H-chromen-4-yl)acetamido)-4-oxobutanoic acid], the melting point lay within 151 to 152 °C. Also, in data set [1], the “selectivity ratio ST3GALI/ST6GALI” value is listed as above 89 and the IC50 amounted to 5.59 ± 0.24 µM. The inhibition at 500 µM in data set [2] was determined as 0%.

As to `COc1ccc2c(CC(=O)N[C@@H](CC(=O)O)C(=O)O[C@@H]3CC[C@@]4(C)[C@H](CC[C@@H]5[C@@H]4CC[C@]4(C)C([C@H](C)CCC(=O)OCCOCCOCCN=[N+]=[N-])CC[C@@H]54)C3)cc(=O)oc2c1` (stereo partly drawn) [Compound 13, (3S)-4-(((3R,5R,8R,9S,10S,10S,3R,14S)-17-((R)-5-(2-(2-(2-azidoethoxy)ethoxy)ethoxy)-5-oxopentan-2-yl)-10,13-dimethylhexadecahydro-1H-cyclopenta[a]phenanthren-3-yl)oxy)-3-(2-(7-methoxy-2-oxo-2H-chromen-4-yl)acetamido)-4-oxo butanoic acid], the melting point lay in the range of 134 to 135 °C. Also, in data set [1], the “selectivity ratio ST3GALI/ST6GALI” value is reported as above 109 and the midpoint of inhibition, the IC50, lay at 4.61 ± 0.35 µM. Besides, the inhibition at 500 µM in data set [2] was 0%.

Regarding `COc1ccc2c(CC(=O)N[C@@H](CC(=O)O)C(=O)O[C@@H]3CC[C@@]4(C)[C@H](CC[C@@H]5[C@@H]4CC[C@]4(C)C([C@H](C)CCC(=O)OCCOCCOCCOCCN=[N+]=[N-])CC[C@@H]54)C3)cc(=O)oc2c1` (stereo partly drawn) [Compound 14, (3S)-4-(((3R,5R,8R,9S,10S,13R,14S)-17-((R)-1-azido-13-oxo-3,6,9,12-tetraoxaheptadecan-16-yl)-10,13-dimethylhexadecahydro-1H-cyclopenta[a]phenanthren-3-yl)oxy)-3-(2-(7-methoxy-2-oxo-2H-chromen-4-yl)acetamido)-4-oxobutanoic acid], the melting point is 126 to 127 °C. Further, in data set [1], the “selectivity ratio ST3GALI/ST6GALI” value is on record as above 101 and the midpoint of inhibition, the IC50, lay at 4.95 ± 0.37 µM. Also, the inhibition at 500 µM in data set [2] was 0%.

Regarding `C[C@H](CCC(=O)OCCOCCOCCN=[N+]=[N-])C1CC[C@H]2[C@@H]3CC[C@@H]4C[C@H](OC(=O)[C@H](CC(=O)O)NC(=O)c5ccc([N+](=O)[O-])cc5)CC[C@]4(C)[C@H]3CC[C@]12C` (stereo partly drawn) [Compound 8, (3S)-4-(((3R,5R,8R,9S,10S,13R,14S)-17-((R)-5-(2-(2-(2-azidoethoxy)ethoxy)ethoxy)-5-oxopentan-2-yl)-10,13-dimethylhexadecahydro-1H-cyclopenta[a]phenanthren-3-yl)oxy)-3-(4-nitrobenzamido)-4-oxobutanoic acid], the melting point was in the range of 52 to 53 °C. Further, in data set [1], the “selectivity ratio ST3GALI/ST6GALI” value was above 94 and half-maximal inhibition (IC50) was put at 5.35 ± 0.46 µM. The inhibition at 500 µM in data set [2] stood at 0%.

`COc1ccc2c(CC(=O)N[C@@H](CC(=O)O)C(=O)O[C@@H]3CC[C@@]4(C)[C@H](CC[C@@H]5[C@@H]4CC[C@]4(C)C([C@H](C)CCC(=O)OCCOCCOCCOCCOCCN=[N+]=[N-])CC[C@@H]54)C3)cc(=O)oc2c1` (stereo partly drawn) [Compound 15, (3S)-4-(((3R,5R,8R,9S,10S,13R,14S)-17-((R)-1-azido-16-oxo-3,6,9,12,15-pentaoxaicosan-19-yl)-10,13-dimethylhexadecahydro-1H-cyclopenta[a]phenanthren-3-yl)oxy)-3-(2-(7-methoxy-2-oxo-2H-chromen-4-yl)acetamido)-4-oxobutanoic acid] yielded a melting point of 113 to 114 °C. Also, in data set [1], the “selectivity ratio ST3GALI/ST6GALI” value is reported as above 88 and the IC50 amounted to 5.69 ± 0.4 µM. Moreover, in data set [2], the inhibition at 500 µM worked out at 0%.

Molecule `C[C@H](CCC(=O)OCCN=[N+]=[N-])C1CC[C@H]2[C@@H]3CC[C@@H]4C[C@H](OC(=O)[C@H](CC(=O)O)NC(=O)c5ccc([N+](=O)[O-])cc5)CC[C@]4(C)[C@H]3CC[C@]12C` (stereo partly drawn) [Compound 6, (3S)-4-(((3R,5R,8R,9S,10S,13R,14S)-17-((R)-5-(2-azidoethoxy)-5-oxopentan-2-yl)-10,13-dimethylhexadecahydro-1H-cyclopenta[a]phenanthren-3-yl)oxy)-3-(4-nitrobenzamido)-4-oxobutanoic acid] came in with a melting point of 61 to 62 °C. In addition, in data set [1], the “selectivity ratio ST3GALI/ST6GALI” value is above 70 and the IC50 was 7.21 ± 0.1 µM. In data set [2], the inhibition at 500 µM amounted to 0%.

The molecule `COc1ccc2c(CC(=O)N[C@@H](CC(=O)O)C(=O)O[C@@H]3CC[C@@]4(C)[C@H](CC[C@@H]5[C@@H]4CC[C@]4(C)C([C@H](C)CCC(=O)OCCOCCN=[N+]=[N-])CC[C@@H]54)C3)cc(=O)oc2c1` (stereo partly drawn) [Compound 12, (3S)-4-(((3R,5R,8R,9S,10S,13R,14S)-17-((R)-5-(2-(2-azidoethoxy)ethoxy)-5-oxopentan-2-yl)-10,13-dimethylhexadecahydro-1H-cyclopenta[a]phenanthren-3-yl)oxy)-3-(2-(7-methoxy-2-oxo-2H-chromen-4-yl)acetamido)-4-oxobutanoic acid] yielded a melting point of 142 to 143 °C. In data set [1], the “selectivity ratio ST3GALI/ST6GALI” value is listed as above 97 and the midpoint of inhibition, the IC50, lay at 5.14 ± 0.11 µM. Besides, the inhibition at 500 µM in data set [2] is 0%.

`C[C@H](CCC(=O)OCCOCCN=[N+]=[N-])C1CC[C@H]2[C@@H]3CC[C@@H]4C[C@H](OC(=O)[C@H](CC(=O)O)NC(=O)c5ccc([N+](=O)[O-])cc5)CC[C@]4(C)[C@H]3CC[C@]12C` (stereo partly drawn) [Compound 7, (3S)-4-(((3R,5R,8R,9S,10S,13R,14S)-17-((R)-5-(2-(2-azidoethoxy)ethoxy)-5-oxopentan-2-yl)-10,13-dimethylhexadecahydro-1H-cyclopenta[a]phenanthren-3-yl)oxy)-3-(4-nitrobenzamido)-4-oxobutanoic acid] gave a melting point of 57 to 58 °C. In data set [1], the “selectivity ratio ST3GALI/ST6GALI” value is listed as above 74 and the IC50 came to 6.72 ± 0.3 µM. For the same molecule, in data set [2], the inhibition at 500 µM was 0%.

The IC50 is the concentration that gives 50% inhibition. Read a low IC50 as greater potency. In general, inhibition refers to how much of the control response was suppressed. In general, melting point refers to the temperature, or range, at which the solid turns liquid.
